In article PMC11091243, “PD-L1 targeted peptide demonstrates potent antitumor and immunomodulatory activity in cancer immunotherapy” (Frontiers in Immunology, 2024):
Residues, ends and D or L forms follow the SMILES beside them. No end group written: not given here. *: point of attachment. FITC = O=C1OC2(c3ccc(O)cc3Oc3cc(O)ccc32)c2ccc(NC(=S)*)cc21

How the values were obtained:
PD-1/PD-L1 binding = target: T1, PD-1/PD-L1 binding (Homo sapiens, UniProt Q9NZQ7); test: ELISA competition of peptides with PD-1 for binding to PD-L1; settings: n = 3, effect increases with peptide concentration
T1 construct: PD-1: 10377-H08H
Experimental: After seven phages were grown and purified, the solution was diluted 10 times to produce eight gradients. To ascertain the phage’s affinity for PD-L1, an ELISA test was run. Briefly, 96-well plates were filled with 150 µL of PD-L1 ([…]) in assay diluent (BioLegend, San Diego, CA), and incubated at 4°C overnight. 5% BSA in water was used to block the wells for two hours at 4°C. Following washing, 100 µL of phage diluent was added to each well, and they were shaken for two hours at room temperature. The wells were then treated with HRP-conjugated anti-M13 antibody at dose of 1:5000. With 100 µL of HRP substrate, the reaction was observed, and the OD410 was determined. By deducting the OD value of each phage binding to BSA-coated wells from the OD value of that phage binding to PD-L1, the specific binding of each phage to PD-L1 was computed. Three duplicate runs of this assay were made. GraphPad Prism 6 software was used to compute each phage binding affinity by nonlinear regression and convert it to a Scatchard plot. ELISA was used to evaluate the candidate peptides capacity to inhibit PD1/PD-L1 binding. The subsequent stages were the same as those previously outlined. Following incubation, OD410 was determined by goat anti-rabbit monoclonal antibody that had been HRP-labeled and rabbit anti-human PD-L1 protein monoclonal antibody.
To assess the effect of PPL-C peptide interference, PD-L1 binding to PD-1 was investigated using ELISA and cell-based analysis. For the ELISA, 100 μL of mouse PD-L1 in PBS was coated in each well of a 96-well plate and incubated the plate at 4°C overnight. On the second day, 1% BSA in PBST was used to block the plate. Each well was then filled with 200 nmol/L biotinylated PD-1 and FITC-labeled PPL-C peptides (at final concentrations of 40, 20, 10, 5, or 2.5 μmol/L) before 1.5 hours incubating at room temperature. After two PBST washes, the relative FITC fluorescence intensity was measured using a Cytation 3 instrument. […] After two PBST washes, the Cytation 3 device was used to detect PE fluorescence intensity. […] Samples were analyzed by flow cytometry.

[1] = tested on: splenic lymphocyte subsets of CT26-bearing Balb/c mice; test: Flow cytometry of spleen lymphocytes of CT26-bearing mice after treatment; type: in vivo; settings: CT26-bearing Balb/c mice, 14 days after treatment; Figure 5D
Experimental: (§1) The mice’s tumor volumes were measured by calipers after they were randomly allocated to various treatment groups. Every day tumor volumes were measured along axes (a and b) that are orthogonal to one another, and they were estimated by the equation tumor volume = π/6 × a × b^2. After the tumor was established (approximately 7 days), each group was subcutaneously injected with PPL-C (6 or 11 mg/kg), control peptide (11 mg/kg), endotoxin-free PD-L1 antibody (200 μg), or control antibody, following specific treatment procedures outlined in the flow chart. The Kaplan-Meier technique was used to determine survival differences for each group, and the log-rank test using the survival R package version 2.38-3 was applied to get the overall p-value.
To differentiate lymphocytes, spleen monocytes were separated via isodensity centrifugation. For flow cytometry evaluation, cell-surface and intracellular staining was achieved through reagents from BD Biosciences or Biolegend, following previously described protocols. Re-suspending the 1× 10^6 cells in 100 μL of PBS before incubating them with the appropriate antibodies. Data were collected using a BD Biosciences FACSCalibur flow cytometer, Germany, and analyzed using FlowJo 7.6 software, USA. Based on scatter signals and 7-Amino-actinomycin D fluorescence, dead cells, and cell debris were removed from the study.

CT26 tumor = type: in vivo, mouse; settings: reduced dose, s.c. around the tumor every day or every other day, n = 6, P<0.001
Experimental: The investigators conducting the animal studies were not blinded. […] The mice were then randomized into different treatment groups.
as §1

T1 sequence (Q9NZQ7 19-239 limits assumed): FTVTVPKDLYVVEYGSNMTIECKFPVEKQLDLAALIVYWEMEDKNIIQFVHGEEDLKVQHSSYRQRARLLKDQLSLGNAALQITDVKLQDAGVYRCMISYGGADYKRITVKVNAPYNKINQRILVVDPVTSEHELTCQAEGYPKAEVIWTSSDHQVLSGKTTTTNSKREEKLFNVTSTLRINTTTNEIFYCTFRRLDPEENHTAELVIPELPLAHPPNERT

Row | Competition with PD-1 to bind PD-L1 (blocking of PD-L1/PD-1) (PD-1/PD-L1 binding) | Compound | Percentage of NK cells in spleen (CD49b/Nkp46, upper right quadrant) [1] | Survival time of CT26 tumor-bearing mice (CT26 tumor)
1 | blocked moderately | CC[C@H](C)[C@H](NC(=O)[C@H](Cc1c[nH]c2ccccc12)NC(=O)[C@H](CO)NC(=O)[C@@H](NC(=O)[C@H](Cc1c[nH]cn1)NC(=O)[C@@H](N)CO)[C@@H](C)O)C(=O)N[C@@H](CC(C)C)C(=O)N[C@@H](Cc1ccc(O)cc1)C(=O)NCC(=O)N[C@@H](CCC(=O)O)C(=O)N[C@H](C(=O)NCC(=O)N[C@@H](Cc1c[nH]c2ccccc12)C(=O)NCC(=O)NCC(=O)NCC(=O)N[C@@H](CO)C(=O)N[C@@H](CCCCNC(=S)Nc1ccc2c(c1)C(=O)OC21c2ccc(O)cc2Oc2cc(O)ccc21)C(N)=O)[C@@H](C)O [PL-8] (H-SHTSWILYGETGWGGGSK(FITC)-NH2; N-terminus assumed) | – | –
2 | blocked moderately | SHESWLPAYVLGSGGGSK-NH2 [PL-20] | – | –
3 | – | SMQYADHPVNTGGGGSK-NH2 [Control peptide, scrambled control peptide, reference compound] | 10.80% | 53 days
